# Reference: patent US8017791B2, “Tri-substituted 2-benzhydryl-5-benzylamino-tetrahydro-pyran-4-ol and 6-benzhydryl-4-benzylamino-tetrahydro-pyran-3-ol analogues, and novel, 3,6-disubstituted pyran derivatives” (Wayne State University, priority 2003, dated 2011)
# Entries after “also recorded” stand apart in the source; their conditions may differ. Where two headings read alike, the source gives them in different places.
# Legend:
# [1] = target: T1, SERT (Rattus norvegicus, UniProt P31652); assay: SERT uptake inhibition, [3H]5-HT; format: biochemical; conditions: Table 4; for IC50: rat brain, read-out: SERT uptake, IC50 [3H]5-HT; for blockade of both SERT and NET (SNRI profile), in words: in vitro data
# T1 construct: rat striatum was the source for DAT, and cerebral cortex for SERT and NET; from tissue; host or cells: rat cerebral cortex
# T1 sequence (P31652 whole entry): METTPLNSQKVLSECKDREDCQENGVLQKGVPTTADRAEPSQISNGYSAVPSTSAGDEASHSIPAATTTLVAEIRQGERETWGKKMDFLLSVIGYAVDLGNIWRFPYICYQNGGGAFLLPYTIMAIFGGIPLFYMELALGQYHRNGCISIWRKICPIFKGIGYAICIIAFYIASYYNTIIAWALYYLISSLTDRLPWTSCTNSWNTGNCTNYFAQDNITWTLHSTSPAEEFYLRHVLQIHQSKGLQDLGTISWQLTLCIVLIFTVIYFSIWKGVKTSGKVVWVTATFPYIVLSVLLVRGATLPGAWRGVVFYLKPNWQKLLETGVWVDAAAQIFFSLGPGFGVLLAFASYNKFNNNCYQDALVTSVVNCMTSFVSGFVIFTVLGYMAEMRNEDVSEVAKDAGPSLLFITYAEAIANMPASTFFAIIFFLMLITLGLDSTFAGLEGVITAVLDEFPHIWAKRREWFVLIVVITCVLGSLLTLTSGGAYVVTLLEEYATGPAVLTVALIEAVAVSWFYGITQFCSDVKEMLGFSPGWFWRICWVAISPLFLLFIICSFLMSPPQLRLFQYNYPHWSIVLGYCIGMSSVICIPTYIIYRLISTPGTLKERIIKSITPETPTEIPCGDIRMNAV
# [2] = target: T2, DAT (Rattus norvegicus, UniProt P23977); assay: Inhibition of [3H]DA uptake by DAT into rat striatal synaptosomes; format: biochemical; conditions: for [3H]DA uptake/DAT binding: Table 3, ratio of IC50 values
# T2 construct: rat striatum was the source for DAT, and cerebral cortex for SERT and NET; from tissue; P2 synaptosomal fraction for uptake
# T2 sequence (P23977 whole entry): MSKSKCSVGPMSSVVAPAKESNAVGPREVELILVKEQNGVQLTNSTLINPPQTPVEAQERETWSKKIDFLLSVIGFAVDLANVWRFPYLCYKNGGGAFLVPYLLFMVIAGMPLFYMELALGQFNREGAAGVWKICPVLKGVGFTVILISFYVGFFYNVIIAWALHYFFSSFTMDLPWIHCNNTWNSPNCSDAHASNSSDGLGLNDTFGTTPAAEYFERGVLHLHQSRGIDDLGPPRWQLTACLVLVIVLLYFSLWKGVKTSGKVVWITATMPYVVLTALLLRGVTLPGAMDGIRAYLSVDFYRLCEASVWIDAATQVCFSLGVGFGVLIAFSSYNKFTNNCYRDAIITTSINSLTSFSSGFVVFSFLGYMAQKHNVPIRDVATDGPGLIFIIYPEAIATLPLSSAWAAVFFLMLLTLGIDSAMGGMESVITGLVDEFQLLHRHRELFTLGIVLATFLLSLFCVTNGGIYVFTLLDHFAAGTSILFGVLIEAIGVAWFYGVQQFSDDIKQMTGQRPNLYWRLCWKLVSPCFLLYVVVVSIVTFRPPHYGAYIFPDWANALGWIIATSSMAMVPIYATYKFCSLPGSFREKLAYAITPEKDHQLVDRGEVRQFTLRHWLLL
# Method: (§1) Biology. […] Briefly, rat striatum was the source for DAT, and cerebral cortex for SERT and NET. […] Test compounds were dissolved in dimethyl sulfoxide (DMSO) and diluted out in 10% (v/v) DMSO. […] At least five triplicate concentrations of each test compound were studied, spaced evenly around the IC50 value. For DAT uptake assays, uptake of 50 nM [^3H]DA into rat striatal synaptosomes was measured exactly as described by us previously. Briefly, rat striatal P2 membrane fractions were incubated with test compounds for 8 min followed by the additional presence of [^3H]DA for 4 min at 25?. […] Construction of inhibition curves and dissolvement of test compounds were as described above.
# [3] = target: NET (Rattus norvegicus, UniProt Q9WTR4); assay: Inhibition of [3H]nisoxetine binding to NET
# Method: as §1
# [4] = test system: NET; assay: Inhibition of [3H]nisoxetine binding to NET; parameters: species or system rat; conditions: Table 3; selectivity ratio of IC50 values
# Method: as §1
# [5] = target: T2, DAT; assay: Inhibition of [3H]WIN 35,428 binding to DAT
# Method: as §1
# [6] = target: T1, SERT; assay: Inhibition of [3H]citalopram binding to SERT; conditions: for SERT binding/DAT binding: Table 3, selectivity ratio of IC50 values
# Method: as §1
# [7] = Table 4, rat brain, read-out: DAT uptake, IC50 [3H]DA
# [8] = Table 2, average ± SEM, read-out: NET binding, IC50 [3H]nisoxetine
# [9] = Table 2, average ± SEM of three to eight experiments, read-out: DAT binding, IC50, [3H]Win 35,428
# [10] = Table 2, average ± SEM, read-out: DAT uptake, IC50 [3H]DA
# [11] = Table 2, average ± SEM, read-out: SERT binding, IC50 [3H]citalopram
# [12] = Table 4, rat brain, read-out: DAT binding, IC50, [3H]Win 35,428
# [13] = Table 1, read-out: Inhibition of [3H]nisoxetine binding to NET, IC50
# [14] = Table 1, rat striatum, read-out: Inhibition of [3H]Win 35,428 binding to DAT IC50
# [15] = Table 1, read-out: Inhibition of [3H]citalopram binding to SERT, IC50
structure (smiles),measurement,setting,value
"O[C@@H]1C[C@@H](C(c2ccccc2)c2ccccc2)OC[C@H]1NCc1ccccc1 [(−)-29d, (2S,4R,5R)-2-benzhydryl-5-benzylamino-tetrahydro-pyran 4-ol]",IC50,[1],862 ± 36 nM
same,IC50,[2]; [7],600 ± 79 nM
"Brc1ccc(CN[C@H]2CC[C@@H](C(c3ccccc3)c3ccccc3)OC2)cc1 (relative stereo) [Compound 16l, Cis-(6-benzhydryl-tetrahydropyran-3-yl)-(4-bromo-benzyl)-amine]",IC50,[3]; [8],592 ± 12 nM
same,NET binding/DAT binding,[4],2.93
same,IC50,[5]; [9],202 ± 13 nM
same,IC50,[2]; [10],251 ± 14 nM
same,[3H]DA uptake/DAT binding,[2],1.24
same,IC50,[6]; [11],2360 ± 92 nM
same,SERT binding/DAT binding,[6],11.69
"Ic1ccc(CN[C@H]2CC[C@@H](C(c3ccccc3)c3ccccc3)OC2)cc1 (relative stereo) [Compound 16m, Cis-(6-benzhydryl-tetrahydropyran-3-yl)-(4-iodo-benzyl)-amine]",IC50,[3]; [8],234 ± 17 nM
same,NET binding/DAT binding,[4],0.73
same,IC50,[5]; [9],319 ± 21 nM
same,IC50,[2]; [10],500 ± 34 nM
same,[3H]DA uptake/DAT binding,[2],1.56
same,IC50,[6]; [11],2480 ± 145 nM
same,SERT binding/DAT binding,[6],7.76
"N#Cc1ccc(CN[C@H]2CC[C@@H](C(c3ccccc3)c3ccccc3)OC2)cc1 (relative stereo) [Compound 16c, Cis-(6-benzhydryl-tetrahydropyran-3-yl)-(4-cyano-benzyl)-amine]",IC50,[3]; [8],1580 nM
same,[3H]DA uptake/DAT binding,[2],1.1
same,IC50,[6]; [11],863 ± 52 nM
"Oc1ccc(CN[C@@H]2CC[C@H](C(c3ccccc3)c3ccccc3)OC2)cc1 [(+)-37a, cis-(3R,6R)-(6-benzhydryl-tetrahydropyran-3-yl)-(4-hydroxy-benzyl)-amine]",IC50,[1],209 ± 25 nM
same,IC50,[5]; [12],141 ± 2.2 nM
same,IC50,[2]; [7],90.7 ± 4 nM
"Oc1ccc(CN[C@H]2CC[C@@H](C(c3ccccc3)c3ccccc3)OC2)cc1 [(−)-37a, cis-(3S,6S)-(6-benzhydryl-tetrahydropyran-3-yl)-(4-hydroxy-benzyl)-amine]",IC50,[1],42 ± 3 nM
same,"blockade of both SERT and NET (SNRI profile), in words",[1],potent blockers for both SERT and NET
same,"blockade of both SERT and NET (SNRI profile), in words",[1]; listed as (−)37a,dual transport blockers
same,IC50,[5]; [12],280 ± 8 nM
same,IC50,[2]; [7],114 ± 8 nM
"Fc1ccc(CN[C@H]2CCO[C@@H](C(c3ccccc3)c3ccccc3)C2)cc1 (relative stereo) [Compound 7a, cis-(2-benzhydryl-tetrahydropyran 4-yl)-(4-fluorobenzyl)-amine]",IC50,[3]; [13],5100 nM
same,IC50,[3]; [8],5100 nM
same,NET binding/DAT binding,[4],3.9
same,"activity at DAT, in words",[5],much weaker at DAT
same,IC50,[5]; [14],1300 nM
same,IC50,[5]; [9],1300 nM
same,IC50,[6]; [15],3310 nM
same,IC50,[6]; [11],3310 nM
same,SERT binding/DAT binding,[6],2.5
"c1ccc(CN[C@H]2CC[C@@H](C(c3ccccc3)c3ccccc3)OC2)cc1 (relative stereo) [Compound 16k, Cis-(6-benzhydryl-tetrahydropyran-3-yl)-benzyl-amine]",IC50,[3]; [13],274 ± 29 nM
same,IC50,[3]; [8],274 ± 29 nM
same,NET binding/DAT binding,[4],0.90
same,IC50,[5]; [14],303 ± 14 nM
same,IC50,[5]; [9],303 ± 14 nM
same,IC50,"[2]; Table 1, read-out: Inhibition of [3H]DA uptake by DAT, IC50",242 ± 39 nM
same,IC50,[2]; [10],242 ± 39 nM
same,[3H]DA uptake/DAT binding,[2],0.79
same,IC50,[6]; [15],1580 ± 97 nM
same,IC50,[6]; [11],1580 ± 97 nM
same,SERT binding/DAT binding,[6],5.20
"Nc1ccc(CN[C@H]2CC[C@@H](C(c3ccccc3)c3ccccc3)OC2)cc1 (relative stereo) [Compound 16o, Cis-(6-benzhydryl-tetrahydropyran-3-yl)-(4-amino-benzyl)-amine]","potency at NET, in words",[3],high potency at NET; also recorded: high potency for the NET
same,[3H]DA uptake/DAT binding,[2],1.02
"COc1ccc(CN[C@@H]2CO[C@H](C(c3ccccc3)c3ccccc3)C[C@H]2O)cc1 [(−)-29a, (2S,4R,5R)-2-benzhydryl-5-(4-methoxy-benzylamino)-tetrahydropyran-4-ol]","blockade of both SERT and NET (SNRI profile), in words",[1],potent blockers for both SERT and NET
same,"blockade of both SERT and NET (SNRI profile), in words",[1]; listed as (−)29a,dual transport blockers
"Fc1ccc(CCN[C@H]2CC[C@@H](C(c3ccccc3)c3ccccc3)OC2)cc1 (relative stereo) [Compound 16p, Cis-(6-benzhydryl-tetrahydropyran-3-yl)-[2-(4-fluoro-phenyl)-ethyl]-amine]",IC50,[3]; [8],5210 nM
same,NET binding/DAT binding,[4],40.4
same,IC50,[5]; [9],129 ± 58 nM
same,IC50,[6]; [11],3950 nM
same,SERT binding/DAT binding,[6],30.6
"c1ccc(CN[C@H]2CC[C@@H](C(c3ccccc3)c3ccccc3)NC2)cc1 [Compound 1a, reference compound]",IC50,"[3]; read-out: Inhibition of [3H]nisoxetine binding to NET, IC50",612 ± 130 nM
"Oc1ccc(CN[C@H]2CC[C@@H](C(c3ccccc3)c3ccccc3)OC2)cc1 (relative stereo) [Compound 16h, Cis-(6-benzhydryl-tetrahydropyran-3-yl)-(4-hydroxy-benzyl)-amine]","potency at NET, in words",[3],high potency for the NET
same,IC50,[5]; read-out: IC50 at the DAT,78.4 nM
same,IC50,[6]; [11],398 ± 22 nM
"c1ccc(C(c2ccccc2)C2CCC(NCc3c[nH]c4ccccc34)CO2)cc1 (stereo not drawn) [Compound 16f, Cis-(6-benzhydryl-tetrahydropyran-3-yl)-(3-indole-methyl)-amine]",IC50,[3]; read-out: IC50 for the NET,1860 nM
same,NET binding/DAT binding,[4],2.3
same,IC50,[5]; read-out: IC50 at the DAT,794 nM
same,IC50,[6]; [11],2590 nM
same,SERT binding/DAT binding,[6],3.3
"Fc1ccc(CN[C@@H]2CCO[C@@H](C(c3ccccc3)c3ccccc3)C2)cc1 (relative stereo) [Compound 7b, trans-(2-benzhydryl-tetrahydropyran-4-yl)-(4-fluoro-benzyl)-amine]",IC50,[3]; [13],17500 nM
same,IC50,[3]; [8],17500 nM
same,NET binding/DAT binding,[4],11.1
same,"activity at DAT, in words",[5],much weaker at DAT
same,IC50,[5]; [14],1580 nM
same,IC50,[5]; [9],1580 nM
same,IC50,[6]; [15],4780 nM
same,IC50,[6]; [11],4780 nM
same,SERT binding/DAT binding,[6],3
"O[C@@H]1C[C@@H](C(c2ccccc2)c2ccccc2)OC[C@H]1NCc1ccc2[nH]ccc2c1 [(−)-32b, (2S,4R,5R)-2-benzhydryl-5-[(1H-indol-5-ylmethyl)-amino]-tetrahydropyran-4-ol]","blockade of both SERT and NET (SNRI profile), in words",[1],potent blockers for both SERT and NET
same,"blockade of both SERT and NET (SNRI profile), in words",[1]; listed as (−)32b,dual transport blockers
same,IC50,[5]; [12],705 ± 176 nM
same,IC50,[2]; [7],162 ± 11 nM
"O[C@H]1C[C@H](C(c2ccccc2)c2ccccc2)OC[C@@H]1NCc1ccccc1 [(+)-29d, (2R,4S,5S)-2-benzhydryl-5-benzylamino-tetrahydro-pyran-4-ol]",IC50,[1],6120 ± 730 nM
same,IC50,[5]; [12],596 ± 84 nM
same,IC50,[2]; [7],341 ± 43 nM
"c1ccc(C(c2ccccc2)[C@@H]2CC[C@H](NCc3ccc4[nH]ccc4c3)CO2)cc1 (relative stereo) [Compound 16n, Cis-(6-benzhydryl-tetrahydropyran-3-yl)-(1H-iodo-5-ylmethyl)-amine]","potency at NET, in words",[3],high affinity; also recorded: strong selective potency at NET
same,IC50,[3]; [8],56 ± 6 nM
same,NET binding/DAT binding,[4],0.09
same,IC50,"[5]; read-out: DAT binding, IC50, [3H]Win 35,428",587 ± 66 nM
same,IC50,[6]; [11],325 ± 20 nM
same,SERT binding/DAT binding,[6],0.55
"Fc1ccc(CN[C@H]2CC[C@@H](C(c3ccccc3)c3ccccc3)OC2)cc1F (relative stereo) [Compound 16j, Cis-(6-benzhydryl-tetrahydropyran-3-yl)-(3,4-difluoro-benzyl)-amine]",IC50,[3]; [8],695 ± 142 nM
same,NET binding/DAT binding,[4],1.9
same,IC50,[5]; [9],368 ± 85 nM
same,IC50,[6]; [11],3520 nM
same,SERT binding/DAT binding,[6],9.6
